Reference: US20240325398A1, “COMBINATION THERAPIES” (Infinity Pharmaceuticals, Inc., priority 2014, published 2024)

Legend:
Assay in all cases: Combination study, ATPLite 72 h, dose matrix (Synergy Score, CI50)
SU-DHL-4-epst = system: SU-DHL-4-epst
Experimental: (§1) Cells are thawed from a liquid nitrogen preserved state. Once cells have been expanded and divide at their expected doubling times, screening begins. Cells are seeded in growth media in either black 1536-well or 384-well tissue culture treated plates. Cells are then equilibrated in assay plates via centrifugation and placed in incubators attached to the Dosing Modules at 37° C. for 24 hours before treatment. […] These Tzero (To) plates are read using ultra-sensitive luminescence on Envision plate readers (Perkin Elmer). Treated assay plates are incubated with compound for 72 hours. After 72 hours, plates are developed for endpoint analysis using ATPLite. All data points are collected via automated processes, quality controlled and analyzed using Zalicus software.
(§2) The measure of effect in the experiment can be the inhibition of cellular response relative to the untreated level (vehicle alone). […] The inhibition ranges from 0% at the untreated level to 100% when T=0. Inhibition levels are negative for agents that actually increase levels.
(§3) Growth Inhibition (GI) is used as a measure of cell viability. […] A GI reading of 100% represents complete growth inhibition—T72 compound-treated and T0 vehicle signals are matched. […] A GI reading of 200% represents complete death of all cells in the culture well. Compounds reaching an activity plateau of GI 200% are considered cytotoxic. GI is calculated by applying the following test and equation:
(§4) Combination analysis data were collected in a 6×6 dose matrix. Synergy is calculated by comparing a combination's response to those of its single compound, against the drug-with-itself dose-additive reference model. Deviations from dose additivity may be assessed visually on an isobologram or numerically with a Combination Index (CI). […] Additive effect is CI=1.0. […] Antagonistic effect is CI>1.0.
(§5) To measure combination effects in excess of Loewe additivity, a scalar measure to characterize the strength of synergistic interaction termed the Synergy Score is devised. The Synergy Score is calculated as:
(§6) The fractional inhibition for each component agent and combination point in the matrix is calculated relative to the median of all vehicle-treated control wells. The Synergy Score equation integrates the experimentally-observed activity volume at each point in the matrix in excess of a model surface numerically derived from the activity of the component agents using the Loewe model for additivity. Additional terms in the Synergy Score equation (above) are used to normalize for various dilution factors used for individual agents and to allow for comparison of synergy scores across an entire experiment. The inclusion of positive inhibition gating or an Idata multiplier removes noise near the zero effect level, and biases results for synergistic interactions at that occur at high activity levels.
(§7) Loewe Volume (Loewe Vol) is used to assess the overall magnitude of the combination interaction in excess of the Loewe additivity model. Loewe Volume is particularly useful when distinguishing synergistic increases in a phenotypic activity (positive Loewe Volume) versus synergistic antagonisms (negative Loewe Volume). […] This model defines additivity as a non-synergistic combination interaction where the combination dose matrix surface should be indistinguishable from either drug crossed with itself. The calculation for Loewe additivity is:

WSU-NHL = system: WSU-NHL
KARPAS-422 = system: KARPAS-422
RL = system: RL
OCI-Ly7 = system: OCI-Ly7
Experimental: as §1, §2, §3, §4, §5, §6, §7

## CC[C@H](Nc1ncnc2[nH]cnc12)c1nc2cccc(F)c2c(=O)n1-c1ccccc1 [CAL-101]
SU-DHL-4-epst; combination with LEE011
  Synergy Score inhibition: A2 (A2=1 to <3)
SU-DHL-4-epst; combination with PCI-32765
  CI50 growth inhibition: S (S=0.01 to <0.5)
  CI50 inhibition: S (S=0.01 to <0.5)
  Synergy Score growth inhibition: A3 (A3=>3)
  Synergy Score inhibition: A2 (A2=1 to <3)
SU-DHL-4-epst; combination with PD-0332991
  CI50 growth inhibition: S (S=0.01 to <0.5)
  CI50 inhibition: S (S=0.01 to <0.5)
  Synergy Score growth inhibition: A3 (A3=>3)
  Synergy Score inhibition: A2 (A2=1 to <3)
WSU-NHL; combination with Dexamethasone
  CI50 growth inhibition: T (T=0.5 to <0.7)
  CI50 inhibition: T (T=0.5 to <0.7)
  Synergy Score growth inhibition: A3 (A3=>3)
  Synergy Score inhibition: A3 (A3=>3)
WSU-NHL; combination with LEE011
  CI50 growth inhibition: T (T=0.5 to <0.7)
  CI50 inhibition: S (S=0.01 to <0.5)
  Synergy Score growth inhibition: A2 (A2=1 to <3)
  Synergy Score inhibition: A2 (A2=1 to <3)
WSU-NHL; combination with PCI-32765
  CI50 growth inhibition: S (S=0.01 to <0.5)
  CI50 inhibition: S (S=0.01 to <0.5)
  Synergy Score growth inhibition: A3 (A3=>3)
  Synergy Score inhibition: A3 (A3=>3)
WSU-NHL; combination with PD-0332991
  CI50 growth inhibition: S (S=0.01 to <0.5)
  CI50 inhibition: S (S=0.01 to <0.5)
  Synergy Score growth inhibition: A2 (A2=1 to <3)
  Synergy Score inhibition: A2 (A2=1 to <3)
KARPAS-422; combination with Dexamethasone
  CI50 growth inhibition: U (U=0.7 to <1)
  CI50 inhibition: T (T=0.5 to <0.7)
  Synergy Score growth inhibition: A3 (A3=>3)
  Synergy Score inhibition: A2 (A2=1 to <3)
KARPAS-422; combination with LEE011
  CI50 growth inhibition: T (T=0.5 to <0.7)
  CI50 inhibition: T (T=0.5 to <0.7)
  Synergy Score growth inhibition: A2 (A2=1 to <3)
  Synergy Score inhibition: A2 (A2=1 to <3)
KARPAS-422; combination with PCI-32765
  CI50 growth inhibition: S (S=0.01 to <0.5)
  CI50 inhibition: S (S=0.01 to <0.5)
  Synergy Score growth inhibition: A3 (A3=>3)
  Synergy Score inhibition: A2 (A2=1 to <3)
KARPAS-422; combination with PD-0332991
  CI50 growth inhibition: S (S=0.01 to <0.5)
  CI50 inhibition: S (S=0.01 to <0.5)
  Synergy Score growth inhibition: A3 (A3=>3)
  Synergy Score inhibition: A2 (A2=1 to <3)
RL; combination with Dexamethasone
  CI50 growth inhibition: T (T=0.5 to <0.7)
  CI50 inhibition: T (T=0.5 to <0.7)
  Synergy Score growth inhibition: A3 (A3=>3)
  Synergy Score inhibition: A2 (A2=1 to <3)
RL; combination with LEE011
  CI50 growth inhibition: T (T=0.5 to <0.7)
  CI50 inhibition: U (U=0.7 to <1)
  Synergy Score growth inhibition: A2 (A2=1 to <3)
  Synergy Score inhibition: A1 (A1=0.0001 to <1)
RL; combination with PCI-32765
  CI50 growth inhibition: T (T=0.5 to <0.7)
  CI50 inhibition: S (S=0.01 to <0.5)
  Synergy Score growth inhibition: A2 (A2=1 to <3)
  Synergy Score inhibition: A2 (A2=1 to <3)
RL; combination with PD-0332991
  CI50 growth inhibition: S (S=0.01 to <0.5)
  CI50 inhibition: S (S=0.01 to <0.5)
  Synergy Score growth inhibition: A2 (A2=1 to <3)
  Synergy Score inhibition: A2 (A2=1 to <3)
OCI-Ly7; combination with Dexamethasone
  CI50 growth inhibition: S (S=0.01 to <0.5)
  CI50 inhibition: T (T=0.5 to <0.7)
  Synergy Score growth inhibition: A3 (A3=>3)
  Synergy Score inhibition: A2 (A2=1 to <3)
OCI-Ly7; combination with LEE011
  CI50 growth inhibition: W (W=≥1)
  Synergy Score growth inhibition: A1 (A1=0.0001 to <1)
  Synergy Score inhibition: A1 (A1=0.0001 to <1)
OCI-Ly7; combination with PCI-32765
  CI50 growth inhibition: W (W=≥1)
  Synergy Score growth inhibition: A1 (A1=0.0001 to <1)
  Synergy Score inhibition: A1 (A1=0.0001 to <1)
OCI-Ly7; combination with PD-0332991
  CI50 growth inhibition: S (S=0.01 to <0.5)
  CI50 inhibition: T (T=0.5 to <0.7)
  Synergy Score growth inhibition: A2 (A2=1 to <3)
  Synergy Score inhibition: A2 (A2=1 to <3)
